pIC50: −log10 of the molar value.
What was measured:
Format in all cases: biochemical
human PDE4D3 = human PDE4D3 (Homo sapiens (Human), UniProt Q08499); experiment: PDE4D3 Scintillation Proximity Assay (SPA), inhibition of enzyme activity; settings: Table 9, geometric mean of 2-9 determinations unless otherwise indicated, read-out: Human PDE4D FL
Method: (§1) The PDE4A, PDE4B, PDE4C and PDE4D binding affinity for the compounds of the present invention was determined utilizing the following biological assay(s):
A portion of the human PDE4D3 coding sequence (amino acids 50 to 672 from the sequence with accession number Q08499-2) was cloned into the baculovirus expression vector pFastBac (Invitrogen) engineered to include a C-terminal His6 affinity tag to aid in purification as described in Seeger, T. F. et al., Brain Research 985 (2003) 113-126. The recombinant Bacmid was isolated and used to transfect insect cells to generate a viral stock. To generate cell paste for purification, insect cells were infected and cells were harvested 72 hours after infection. Insect cell paste was lysed and after centrifugation, the supernatant was chromatographed on Ni-NTA agarose (Qiagen) as described in Seeger, T. F. et al., Brain Research 985 (2003) 113-126. Ni-NTA agarose eluting fractions containing PDE4 were pooled, diluted with Q Buffer A (50 mM Tris HCl pH 8, 4% glycerol, 100 mM NaCl, 1 mM TCEP, Protease inhibitors EDTA-free (Roche)) to reduce NaCl to ˜200 mM, and loaded on a Q Sepharose (GE Healthcare) column. After washing with Q buffer A to baseline, PDE4D was eluted with a gradient from 10% to 60% of Buffer B (50 mM Tris HCl pH 8, 1 M NaCl, 4% glycerol, 1 mM TCEP). PDE4D fractions were analyzed by SDS-PAGE Coomassie blue staining, pooled based on purity, frozen and stored at −80° C.
(§2) The PDE4A3, PDE4B1, PDE4C1 and PDE4D3 assays use the Scintillation Proximity Assay (SPA) technology to measure the inhibition of human recombinant PDE4A1, PDE4B3, PDE4C1, and PDE4D3 enzyme activity by compounds in vitro. The PDE4A1, PDE4B3, PDE4C1, and PDE4D3 assays are run in parallel using identical parameters, except for the concentration of enzyme ([…]). The assays are performed in a 384-well format with 50 uL assay buffer (50 mM TRIS pH7.5; 1.3 mM MgCl2; 0.01% Brij) containing enough PDE4A3, PDE4B1, PDE4C1, and PDE4D to convert ˜20% of substrate (1 μM cAMP consisting of 20 nM 3H-cAMP+[…] cold cAMP) and a range of inhibitors. Reactions are incubated for 30 min at 25° C. The addition of 20 uL of 8 mg/ml yitrium silicate SPA beads (Perkin Elmer) stops the reaction. The plates are sealed (TopSeal, Perkin Elmer) and the beads are allowed to settle for 8 hrs, after which they are read on the Trilux Microbeta overnight.

Human PDE4A3 = Human PDE4A3 (Homo sapiens (Human), UniProt P27815); experiment: PDE4A3 Scintillation Proximity Assay (SPA), inhibition of enzyme activity; settings: Table 9, geometric mean of 2-9 determinations unless otherwise indicated, read-out: Human PDE4A FL
Method: as §1
(§3) The recombinant Bacmid was isolated and used to transfect insect cells to generate a viral stock. To generate cell paste for purification, insect cells were infected with the virus stock and cells were harvested 72 hours after infection. Insect cell paste was lysed and after centrifugation, the supernatant was batch bound to Ni-NTA agarose (GE Healthcare) and eluted with 250 mM imidazole. This eluate was diluted with FLAG buffer (50 mM Tris HCL pH 7.5, 100 mM NaCl, 5% Glycerol, 1 mM TCEP with protease inhibitors) and batch bound to ant-FLAG M2 agarose (Sigma) overnight at 4° C. The agarose was packed into a column, washed with buffer and eluted with buffer containing elute using 250 ug/ml Flag-peptide. Fractions were analyzed using SDS-PAGE Coomassie blue staining and pooled based on purity. Pooled fractions were chromatographed on a S200 120 ml column (GE Healthcare) in 50 mM Tris HCL pH 7.5, 150 mM NaCl, 10% Glycerol, 2 mM TCEP with protease inhibitors. PDE4A3 fractions were analyzed by SDS-PAGE Coomassie blue staining, pooled based on purity, dialyzed against 50 mM Tris HCL pH 7.5, 100 mM NaCl, 20% Glycerol, 2 mM TCEP, frozen and stored at −80° C.
as §2

Human PDE4B1 = Human PDE4B1 (Homo sapiens (Human), UniProt Q07343, S133E/S654A/S659A/S661A); experiment: PDE4B1 Scintillation Proximity Assay (SPA), inhibition of enzyme activity; settings: Table 9, geometric mean of 2-9 determinations unless otherwise indicated, read-out: Human PDE4B FL
Method: as §1
The recombinant Bacmid was isolated and used to transfect insect cells to generate a viral stock. To generate cell paste for purification, insect cells were infected with the virus stock and cells were harvested 72 hours after infection as described in Seeger, T. F. et al., Brain Research 985 (2003) 113-126. Insect cell paste was lysed and after centrifugation, the supernatant was chromatographed on Ni-NTA agarose (Qiagen) as described in Seeger, T. F. et al., Brain Research 985 (2003) 113-126. Ni-NTA agarose eluting fractions containing PDE4 were pooled, diluted with Q buffer A (20 mM Tris HCl pH 8, 5% glycerol, 1 mM TCEP) to reduce NaCl to ˜100 mM and loaded on a Source 15Q (GE Healthcare) column. After washing with Q buffer A/10% buffer B to baseline, PDE4D was eluted with a gradient from 10% to 60% of Buffer B (20 mM Tris HCl pH 8, 1 M NaCl, 5% glycerol, 1 mM TCEP). PDE4D fractions were analyzed by SDS-PAGE Coomassie blue staining, pooled based on purity, frozen and stored at −80° C.
as §2

Human PDE4C1 = Human PDE4C1 (Homo sapiens (Human), UniProt Q08493); experiment: PDE4C1 Scintillation Proximity Assay (SPA), inhibition of enzyme activity; settings: Table 9, geometric mean of 2-9 determinations unless otherwise indicated, read-out: Human PDE4C FL
Method: as §1
as §3, with “PDE4C1” for “PDE4A3”
as §2

Sequence of human PDE4D3 (Q08499 186-808): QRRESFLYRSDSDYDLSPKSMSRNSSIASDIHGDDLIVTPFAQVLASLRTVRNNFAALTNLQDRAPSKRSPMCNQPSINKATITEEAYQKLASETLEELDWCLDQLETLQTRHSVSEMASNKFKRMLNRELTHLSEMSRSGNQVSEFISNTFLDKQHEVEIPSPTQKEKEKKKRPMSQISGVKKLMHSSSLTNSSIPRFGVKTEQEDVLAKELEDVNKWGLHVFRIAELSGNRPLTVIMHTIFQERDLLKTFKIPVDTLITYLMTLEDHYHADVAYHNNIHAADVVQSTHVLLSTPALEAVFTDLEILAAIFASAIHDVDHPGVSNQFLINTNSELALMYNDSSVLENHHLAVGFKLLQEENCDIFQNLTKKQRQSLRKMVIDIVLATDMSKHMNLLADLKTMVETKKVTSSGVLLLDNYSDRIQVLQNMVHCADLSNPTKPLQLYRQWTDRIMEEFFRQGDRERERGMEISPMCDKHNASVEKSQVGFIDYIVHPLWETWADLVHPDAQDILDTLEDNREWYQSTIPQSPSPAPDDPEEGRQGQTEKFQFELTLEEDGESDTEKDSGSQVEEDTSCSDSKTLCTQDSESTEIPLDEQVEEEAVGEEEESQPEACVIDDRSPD
Sequence of Human PDE4B1 (Q07343 122-736 S133E/S654A/S659A/S661A): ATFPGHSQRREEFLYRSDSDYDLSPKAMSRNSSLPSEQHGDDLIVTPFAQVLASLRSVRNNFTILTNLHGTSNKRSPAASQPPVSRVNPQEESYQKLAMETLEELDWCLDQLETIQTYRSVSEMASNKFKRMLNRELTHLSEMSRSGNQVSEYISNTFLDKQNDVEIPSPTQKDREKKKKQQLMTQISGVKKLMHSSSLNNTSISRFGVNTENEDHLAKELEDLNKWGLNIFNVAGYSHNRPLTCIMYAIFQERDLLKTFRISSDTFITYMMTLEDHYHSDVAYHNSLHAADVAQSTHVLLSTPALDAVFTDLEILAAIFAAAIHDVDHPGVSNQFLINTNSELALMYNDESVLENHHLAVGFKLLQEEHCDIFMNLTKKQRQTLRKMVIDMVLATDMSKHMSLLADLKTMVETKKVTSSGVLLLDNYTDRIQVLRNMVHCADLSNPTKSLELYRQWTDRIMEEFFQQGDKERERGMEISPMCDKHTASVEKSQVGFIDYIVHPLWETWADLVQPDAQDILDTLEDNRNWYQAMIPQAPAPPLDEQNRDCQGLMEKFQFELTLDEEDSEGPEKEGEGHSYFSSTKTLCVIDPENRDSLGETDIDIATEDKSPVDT
Sequence of Human PDE4C1 (Q08493 2-712): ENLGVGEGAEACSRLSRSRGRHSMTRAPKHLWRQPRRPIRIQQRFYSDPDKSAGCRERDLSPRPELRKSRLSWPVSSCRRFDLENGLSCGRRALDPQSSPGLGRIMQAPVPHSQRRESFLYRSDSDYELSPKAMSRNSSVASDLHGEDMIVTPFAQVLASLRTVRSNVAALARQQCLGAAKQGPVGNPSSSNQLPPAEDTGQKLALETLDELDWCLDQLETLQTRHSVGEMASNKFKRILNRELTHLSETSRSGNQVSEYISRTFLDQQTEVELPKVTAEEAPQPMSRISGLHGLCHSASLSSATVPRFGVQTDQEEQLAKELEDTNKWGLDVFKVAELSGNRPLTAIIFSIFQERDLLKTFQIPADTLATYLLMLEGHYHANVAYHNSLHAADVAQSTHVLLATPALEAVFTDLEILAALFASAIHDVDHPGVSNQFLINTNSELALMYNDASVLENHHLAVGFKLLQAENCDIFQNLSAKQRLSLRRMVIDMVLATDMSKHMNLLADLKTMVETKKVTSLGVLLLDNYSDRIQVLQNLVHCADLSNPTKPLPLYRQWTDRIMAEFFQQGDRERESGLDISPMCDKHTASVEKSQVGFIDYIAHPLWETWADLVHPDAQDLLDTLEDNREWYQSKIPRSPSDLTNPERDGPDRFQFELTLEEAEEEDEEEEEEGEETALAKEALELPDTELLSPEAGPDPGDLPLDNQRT
Sequence of Human PDE4A3 (P27815 other isoform, or with tags, fused parts or gaps): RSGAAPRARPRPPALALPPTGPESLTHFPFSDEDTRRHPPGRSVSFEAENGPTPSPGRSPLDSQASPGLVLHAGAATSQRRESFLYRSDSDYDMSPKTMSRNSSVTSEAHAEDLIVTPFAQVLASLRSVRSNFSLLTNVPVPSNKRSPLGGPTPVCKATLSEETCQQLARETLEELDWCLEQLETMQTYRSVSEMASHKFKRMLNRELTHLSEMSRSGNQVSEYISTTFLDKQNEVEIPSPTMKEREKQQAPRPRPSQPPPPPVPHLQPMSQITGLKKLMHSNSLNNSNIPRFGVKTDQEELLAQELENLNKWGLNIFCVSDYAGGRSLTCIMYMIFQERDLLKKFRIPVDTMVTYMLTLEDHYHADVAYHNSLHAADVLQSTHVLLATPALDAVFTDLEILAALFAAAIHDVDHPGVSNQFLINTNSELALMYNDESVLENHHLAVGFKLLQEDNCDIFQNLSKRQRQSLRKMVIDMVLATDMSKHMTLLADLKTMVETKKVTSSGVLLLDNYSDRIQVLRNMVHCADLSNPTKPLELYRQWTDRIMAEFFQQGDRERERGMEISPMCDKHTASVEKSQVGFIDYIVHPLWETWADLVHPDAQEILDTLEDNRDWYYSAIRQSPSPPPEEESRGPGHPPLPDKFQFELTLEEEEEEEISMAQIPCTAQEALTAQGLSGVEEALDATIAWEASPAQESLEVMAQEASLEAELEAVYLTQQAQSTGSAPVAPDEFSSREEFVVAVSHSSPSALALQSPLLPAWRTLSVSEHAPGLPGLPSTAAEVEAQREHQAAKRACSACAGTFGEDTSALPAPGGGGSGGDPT

SMILES	pIC50 (human PDE4D3)	pIC50 (Human PDE4A3)	pIC50 (Human PDE4B1)	pIC50 (Human PDE4C1)
O=C1c2c(-c3ccc(Cl)cc3)c3ncccc3n2CC2CCN12 (single isomer, unassigned) [Example 68]	6.27	7.59	7.73	7.59
O=C1c2c(-c3ccc(Cl)cc3)c3ncccc3n2CC2CCN12 (single isomer, unassigned) [Example 69]	6.16	8.05	7.79	7.61
O=C1c2c(-c3ccc(Cl)cc3)c3ncccc3n2CCN1c1ncccn1 [Example 1, 10-(4-Chlorophenyl)-8-(pyrimidin-2-yl)-7,8-dihydropyrido[2′,3′:4,5]pyrrolo[1,2-a]pyrazin-9(6H)-one]	5.91	7.73	7.79	6.74
O=C1c2c(-c3ccc(Cl)cc3)c3ncccc3n2CCN1C1CC1 [Example 2, 10-(4-Chlorophenyl)-8-cyclopropyl-7,8-dihydropyrido[2′,3′:4,5]pyrrolo[1,2-a]pyrazin-9(6H)-one]	7.12	> 9.00	> 9.38	8.40
N#Cc1ccc(-c2c3n(c4cccnc24)CCN(C2CC2)C3=O)cc1F [Example 4, 4-(8-Cyclopropyl-9-oxo-6,7,8,9-tetrahydropyrido[2′,3′:4,5]pyrrolo[1,2-a]pyrazin-10-yl)-2-fluorobenzonitrile]	7.44	8.33	> 9.09	7.77
O=C1c2c(-c3ccc(Cl)c(F)c3)c3ncncc3n2CCN1C1CC1 [Example 7, 10-(4-Chloro-3-fluorophenyl)-8-cyclopropyl-7,8-dihydropyrazino[1′,2′: 1,5]pyrrolo[3,2-d]pyrimidin-9(6H)-one]	6.80	7.84	8.60	7.15
O=C1c2c(-c3ccc(Cl)c(F)c3)c3nccnc3n2CCN1C1CC1 [Example 8, 10-(4-Chloro-3-fluorophenyl)-8-cyclopropyl-7,8-dihydropyrrolo[1,2-a:4,5-b′]dipyrazin-9(6H)-one]	7.05	8.92	> 8.90	7.86
O=C1c2c(-c3ccc(Cl)cc3)c3cccnc3n2CCN1C1CC1 [Example 9, 5-(4-Chlorophenyl)-7-cyclopropyl-8,9-dihydropyrido[3′,2′: 4,5]pyrrolo[1,2-a]pyrazin-6(7H)-one]	5.09	6.89	6.53	6.90
C[C@@H]1Cn2c(c(-c3ccc(Cl)cc3)c3ncccc32)C(=O)N1C1CC1 [Example 10, (7R)-10-(4-Chlorophenyl)-8-cyclopropyl-7-methyl-7,8-dihydropyrido[2′,3′:4,5]pyrrolo[1,2-a]pyrazin-9(6H)-one]	6.11	7.81	7.91	7.55
C[C@H]1Cn2c(c(-c3ccc(Cl)cc3)c3ncccc32)C(=O)N1C1CC1 [Example 11, (7S)-10-(4-Chlorophenyl)-8-cyclopropyl-7-methyl-7,8-dihydropyrido[2′,3′: 4,5]pyrrolo[1,2-a]pyrazin-9(6H)-one]	7.54	> 9.52	> 9.28	> 9.24
O=C1c2c(-c3ccc(Cl)cc3)c3ccccc3n2CCN1C1CC1 [Example 12, 10-(4-Chlorophenyl)-2-cyclopropyl-3,4-dihydropyrazino[1,2-a]indol-1(2H)-one]	5.51	7.92	7.72	7.63
Cc1ccc(-c2c3ncccc3n3ccn(C4CC4)c(=O)c23)cc1 [Example 13, 8-Cyclopropyl-10-(4-methylphenyl)pyrido[2′,3′:4,5]pyrrolo[1,2-a]pyrazin-9(8H)-one]	6.74	8.73	8.57	8.18
Cc1cc(C#N)ccc1-c1c2n(c3scnc13)CCN(C1CC1)C2=O [Example 14, 4-(7-Cyclopropyl-8-oxo-5,6,7,8-tetrahydro[1,3]thiazolo[4′,5′:4,5]pyrrolo[1,2-a]pyrazin-9-yl)-3-methylbenzonitrile]	5.68	7.73	7.71	7.10

— patent US11472805B2, “Tricyclic compounds and their use as phosphodiesterase inhibitors” (Pfizer Inc., priority 2015, dated 2022)
